In assay [1] the test system is HIV-1 301714 (adult). As to the kind of experiment: HIV-1 P24 antigen in PBMC coculture, drug exposure at infection and for 12 hours thereafter. It counts as cell-based. The procedure:
(§1) Viruses: 6 viruses were titrated. The TCID50/ml of each virus isolate was as the follows:
(§2) 512.2 μl of HIV-1 302076 was added into 9487.8 μl R-3 medium. 512.2 μl of HIV-1 302077 was added into 9487.8 μl R-3 medium. 126.3 μl of HIV-1 302143 was added into 9873.7 μl R-3 medium. 1002.4 μl of HIV-1 301714 was added into 8997.6 R-3 medium. 2000 μl of HIV-1m 2054 was added into 8000.0 μl R-3 medium. 4000 μl of HTLV-IIIB was added into 6000 R-3 μl medium. Viruses were diluted to 100 TCID50 virus stock: 2.5 ml of 2000 TCID50/ml was added to 2.5 ml of R-3 medium, this is 100 TCID50 (in 100 μl) stock. PBMC: Peripheral blood mononuclear cells (PBMC) were separated from HI-1-uninfected donor by Ficoll-hypaque density gradient centrifugation. PBMC were grown in RPMI 1640 supplemented with 20% fetal calf serum, 5% IL-2 and 5 μg/ml PHA (R-3 medium).
(§3) The above step was repeated for 1:156.25, 781.25, 3906.25 and 19531.25 dilutions. Finally, the concentrations used in the experiment were 2, 0.4, 0.08, 0.016, 0.0032, 0.00064 μg/ml.
(§4) The above step was repeated for 1:625, 1:3125, 1:15625, 1:78125 and 390625 dilution. Finally, the concentrations used in the experiment were 1.
(§5) The final 3 tubes are added with 100 μPBS. […] The tubes were incubated at 37° C. overnight.
(§6) The cells were washed 3 times in PBS.

The subject of assay [2] is HIV-1 2054 (adult). The description is as above. It counts as cell-based. Here is the method:
as §1, §2, §3, §4, §5, §6

Assay [3] relates to HIV-1 302077 (pediatric). The note with it: PBMC. Here is the method:
(§7) Viruses: 6 viruses were titrated.
as §2
(§8) The final three tubes are added to 100 μl PBS. […] The final 3 tubes are added with 100 μPBS. […] The final 3 tubes are added to 100 μl PBS. 100 μl of 100 TCID50 virus stock were aliquoted into all 63 tubes. 2×10^6 PBMC was added in 1.8 ml of R-3 medium (total 2.0 ml per tube). The tubes were incubated at 37° C. overnight.
(§9) The cells were washed 3 times in PBS. […] HIV-1 P24 antigen measurement was performed in the supernatant of each coculture well on days 4 and 7.0.5 ml cells (10^6/ml) in R-3 medium were added on day 4.

For assay [4], the system named is HIV-1 302143 (pediatric). Particulars: PBMC. Here is the method:
as §7, §2, §8, §9

Assay [5] relates to HIV-1 302076 (pediatric). Particulars: PBMC. Here is the method: as §7, §2, §8, §9
Assay [6] concerns HTLV-IIIB (lab). Particulars: PBMC. The procedure:
as §7, §2, §8, §9

Assay [7] has as its system HIV-1 302077 (pediatric). The note with it: PBMC. Here is the method: as §7, §2, §3
(§10) The above step was repeated for 1:625, 1:3125, 1:15625, 1:78125 and 390625 dilution. Finally, the concentrations used in the experiment were 1. 0.2.0.04, 0.008, 0.0016, 0.00032 μg/ml.
as §8, §9
This is another data set of the same source.

The test system of assay [8] is HIV-1 302143 (pediatric). Particulars: PBMC. Here is the method:
as §7, §2, §3, §10, §8, §9
The source holds these as a separate data set.

The subject of assay [9] is HIV-1 302076 (pediatric). The note with it: PBMC. Here is the method: as §7, §2, §3, §10, §8, §9
The source holds these as a separate data set.

In assay [10] the test system is HTLV-IIIB (lab). Particulars: PBMC. The procedure: as §7, §2, §3, §10, §8, §9
This is another data set of the same source.

For assay [11], the system named is HIV-1 301714 (adult). Nature of the assay: HIV-1 P24 antigen in PBMC coculture, continuous drug exposure. The assay is classed as cell-based. Here is the method:
as §1, §2, §5, §6

The subject of assay [12] is HIV-1 2054 (adult). The description is as above. It counts as cell-based. Here is the method:
as §1, §2, §5, §6

The mark [13] stands for this setting: HIV-1 301714, day 4, drugs removed after 12 hours.
Where [14] appears, read: HIV-1 301714, day 7, drugs removed after 12 hours.
Setting [15] is: HIV-1 2054, day 4, drugs removed after 12 hours.
[16] abbreviates: HIV-1 2054, day 7, drugs removed after 12 hours.
The mark [17] stands for this setting: day 4, continuous drug exposure.
Setting [18] is: day 7, continuous drug exposure.
[19] abbreviates: HIV-1 301714, day 4, continuous drug exposure.
[20] abbreviates: HIV-1 301714, day 7, continuous drug exposure.
Setting [21] is: HIV-1 2054, day 4, continuous drug exposure.
The mark [22] stands for this setting: HIV-1 2054, day 7, continuous drug exposure.

Read-outs that look alike come from different tables or passages of the source.

The results in this text go back to patent US20060121480A1, “Synergistic compositions for the prevention and treatment of acquired immunodeficiency syndrome” (priority 2002, published 2006).

Consider “5A8: humanized monoclonal antibody to CD4”, for which the IC50 in the assay on HIV-1 301714 (adult) [1] (setting [13]) is 0.70 µg/mL; in the assay with HIV-1 301714 (adult) [1] (setting [14]) it was 1.82 µg/mL; with HIV-1 2054 (adult) [2] (setting [15]), 0.070 µg/mL; with HIV-1 2054 (adult) [2] (setting [16]) it was 0.13 µg/mL; in the assay with HIV-1 302077 (pediatric) [3] (HIV-1 302077, day 4, continuous drug exposure) it was 0.14 µg/mL; in the assay on HIV-1 302077 (pediatric) [3] (HIV-1 302077, day 7, continuous drug exposure), 0.067 µg/mL. The IC50 with HIV-1 302143 (pediatric) [4] (HIV-1 302143, day 4, continuous drug exposure) stood at 0.038 µg/mL; in the assay with HIV-1 302143 (pediatric) [4] (HIV-1 302143, day 7, continuous drug exposure), 0.022 µg/mL; with HIV-1 302076 (pediatric) [5] (HIV-1 302076, day 4, continuous drug exposure), 0.10 µg/mL; with HIV-1 302076 (pediatric) [5] (HIV-1 302076, day 7, continuous drug exposure), 0.028 µg/mL; with HTLV-IIIB (lab) [6] (setting [17]), 0.19 µg/mL; in the assay with HTLV-IIIB (lab) [6] (setting [18]), 0.16 µg/mL. Besides, the IC50 in the assay on HIV-1 302077 (pediatric) [7] (HIV-1 302077, day 4, drugs removed after 12 hours) was 0.17 µg/mL; in the assay on HIV-1 302077 (pediatric) [7] (HIV-1 302077, day 7, drugs removed after 12 hours) it was 0.50 µg/mL; in the assay with HIV-1 302143 (pediatric) [8] (HIV-1 302143, day 4, drugs removed after 12 hours), 0.97 µg/mL; in the assay with HIV-1 302143 (pediatric) [8] (HIV-1 302143, day 7, drugs removed after 12 hours), more than 2.0 µg/mL; in the assay with HIV-1 302076 (pediatric) [9] (HIV-1 302076, day 4, drugs removed after 12 hours), 0.15 µg/mL; in the assay on HIV-1 302076 (pediatric) [9] (HIV-1 302076, day 7, drugs removed after 12 hours), 0.65 µg/mL. Besides, the 50% inhibitory concentration (IC50) in the assay on HTLV-IIIB (lab) [10] (day 4, drugs removed after 12 hours) came out at 0.44 µg/mL; in the assay on HTLV-IIIB (lab) [10] (day 7, drugs removed after 12 hours), 1.30 µg/mL; with HIV-1 301714 (adult) [11] (setting [19]), 0.14 µg/mL; in the assay with HIV-1 301714 (adult) [11] (setting [20]) it was 0.30 µg/mL; with HIV-1 2054 (adult) [12] (setting [21]), 0.041 µg/mL; with HIV-1 2054 (adult) [12] (setting [22]) it was 0.017 µg/mL.

Consider enfuvirtide, for which the IC50 turned out to be 0.20 µg/mL in the assay on HIV-1 301714 (adult) [1] (setting [13]); 0.050 µg/mL in the assay on HIV-1 301714 (adult) [1] (setting [14]); 0.039 µg/mL in the assay with HIV-1 2054 (adult) [2] (setting [15]); 0.11 µg/mL with HIV-1 2054 (adult) [2] (setting [16]); 0.017 µg/mL in the assay on HTLV-IIIB (lab) [6] (setting [17]); 0.013 µg/mL in the assay on HTLV-IIIB (lab) [6] (setting [18]). The IC50 came out at 0.049 µg/mL in the assay with HIV-1 301714 (adult) [11] (setting [19]), 0.040 µg/mL with HIV-1 301714 (adult) [11] (setting [20]), 0.019 µg/mL with HIV-1 2054 (adult) [12] (setting [21]) and 0.16 µg/mL with HIV-1 2054 (adult) [12] (setting [22]).
